# Measured values from ChEMBL document CHEMBL1140580, “Synthesis and characterization of trans-4-(4-chlorophenyl)pyrrolidine-3-carboxamides of piperazinecyclohexanes as ligands for the melanocortin-4 receptor” (Bioorg Med Chem Lett, 2007).
# What was measured:
# Melanocortin receptor 4 [1] = target: T1, Melanocortin receptor 4 (Homo sapiens, UniProt P32245); assay: Displacement of […]NDPMSH from human MC4R expressed in HEK293 cells; type: cell-based
# Melanocortin receptor 4 [2] = target: T1, Melanocortin receptor 4; assay: Agonist activity at MC4R assessed as stimulation of cAMP release relative to alphaMSH; type: functional
# Melanocortin receptor 4 [3] = target: T1, Melanocortin receptor 4; assay: Antagonist activity at MC4R assessed as inhibition of alpha-MSH-stimulated cAMP release; type: functional
# [4] = target: Melanocyte-stimulating hormone receptor (Homo sapiens, UniProt Q01726); assay: Binding affinity to MC1R
# Melanocortin receptor 3 = Melanocortin receptor 3 (Homo sapiens, UniProt P41968); assay: Binding affinity to MC3R
# Melanocortin receptor 5 = Melanocortin receptor 5 (Homo sapiens, UniProt P33032); assay: Binding affinity to MC5R
# Melanocortin receptor 4 [5] = target: Melanocortin receptor 4 (Mus musculus, UniProt P56450); assay: Binding affinity to mouse MC4R
# Melanocortin receptor 4 [6] = target: T1, Melanocortin receptor 4; assay: Agonist activity at MC4R assessed as stimulation of cAMP release; type: functional
# T1 sequence (P32245 whole entry): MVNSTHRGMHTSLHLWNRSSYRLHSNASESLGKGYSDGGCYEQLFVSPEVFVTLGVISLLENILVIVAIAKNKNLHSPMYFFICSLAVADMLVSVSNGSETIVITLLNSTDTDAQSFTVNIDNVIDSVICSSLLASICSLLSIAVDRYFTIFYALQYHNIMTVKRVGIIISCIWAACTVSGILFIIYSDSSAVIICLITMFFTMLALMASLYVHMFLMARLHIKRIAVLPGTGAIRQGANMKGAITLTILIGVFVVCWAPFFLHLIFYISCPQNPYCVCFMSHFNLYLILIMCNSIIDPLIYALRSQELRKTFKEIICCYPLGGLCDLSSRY
# Melanocortin receptor 3, sequence (P41968 whole entry): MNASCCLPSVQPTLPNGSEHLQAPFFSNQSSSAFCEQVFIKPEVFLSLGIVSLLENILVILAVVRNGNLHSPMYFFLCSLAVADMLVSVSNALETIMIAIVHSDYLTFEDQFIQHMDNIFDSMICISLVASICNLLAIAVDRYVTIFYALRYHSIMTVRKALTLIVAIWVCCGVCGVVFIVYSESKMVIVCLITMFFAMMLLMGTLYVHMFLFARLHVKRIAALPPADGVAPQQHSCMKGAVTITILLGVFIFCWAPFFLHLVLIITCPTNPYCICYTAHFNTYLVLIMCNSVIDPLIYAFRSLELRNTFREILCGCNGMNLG
# Melanocyte-stimulating hormone receptor, sequence (Q01726 whole entry): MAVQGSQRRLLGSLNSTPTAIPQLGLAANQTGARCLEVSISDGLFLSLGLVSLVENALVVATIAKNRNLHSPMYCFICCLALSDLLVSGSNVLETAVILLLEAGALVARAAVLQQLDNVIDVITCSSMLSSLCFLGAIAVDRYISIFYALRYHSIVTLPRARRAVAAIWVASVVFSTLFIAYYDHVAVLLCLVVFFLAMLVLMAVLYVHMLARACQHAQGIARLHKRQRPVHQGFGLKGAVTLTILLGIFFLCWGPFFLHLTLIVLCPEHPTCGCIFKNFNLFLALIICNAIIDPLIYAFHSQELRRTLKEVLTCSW
# Melanocortin receptor 5, sequence (P33032 whole entry, looked up): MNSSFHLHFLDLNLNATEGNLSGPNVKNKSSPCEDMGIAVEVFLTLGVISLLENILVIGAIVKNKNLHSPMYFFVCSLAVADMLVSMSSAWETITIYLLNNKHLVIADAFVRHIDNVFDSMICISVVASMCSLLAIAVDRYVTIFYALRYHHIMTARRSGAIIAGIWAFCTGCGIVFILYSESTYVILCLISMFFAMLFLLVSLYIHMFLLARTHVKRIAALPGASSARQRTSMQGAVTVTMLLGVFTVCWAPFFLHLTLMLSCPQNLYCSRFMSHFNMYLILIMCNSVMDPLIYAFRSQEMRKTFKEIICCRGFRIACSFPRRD
# Melanocortin receptor 4 (Mus musculus, UniProt P56450), sequence (P56450 whole entry): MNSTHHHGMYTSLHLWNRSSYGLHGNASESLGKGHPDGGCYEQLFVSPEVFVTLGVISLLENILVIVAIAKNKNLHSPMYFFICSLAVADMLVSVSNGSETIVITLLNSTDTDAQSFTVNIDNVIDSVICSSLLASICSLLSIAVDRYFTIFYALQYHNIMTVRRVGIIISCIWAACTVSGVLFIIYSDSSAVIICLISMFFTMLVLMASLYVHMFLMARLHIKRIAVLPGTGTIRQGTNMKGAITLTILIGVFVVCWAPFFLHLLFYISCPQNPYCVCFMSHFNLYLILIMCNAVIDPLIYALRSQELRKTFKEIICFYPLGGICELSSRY
Ki (Melanocortin receptor 4 [1]),Intrinsic activity (Melanocortin receptor 4 [2]),IC50 (Melanocortin receptor 4 [3]),Ki [4],Ki (Melanocortin receptor 3),Ki (Melanocortin receptor 5),Ki (Melanocortin receptor 4 [5]),EC50 (Melanocortin receptor 4 [6]),SMILES
0.5 nM,10%,48 nM,3900 nM,760 nM,540 nM,0.6 nM,170 nM,COc1ccc(CNCC2(N3CCN(C(=O)[C@H]4CN(C(C)C)C[C@@H]4c4ccc(Cl)cc4)CC3)CCCCC2)cc1F
27 nM,27%,410 nM,,,,,780 nM,CC(C)N1C[C@H](C(=O)N2CCN(C3(CNCc4ccncc4)CCCCC3)CC2)[C@@H](c2ccc(Cl)cc2)C1
5.5 nM,16%,130 nM,,,,,1500 nM,O=C([C@H]1CN(C2CCCCC2)C[C@@H]1c1ccc(Cl)cc1)N1CCN(C2(CNCc3ccccc3)CCCCC2)CC1
1.8 nM,26%,,,,,,1600 nM,COc1ccc(CNCC2(N3CCN(C(=O)[C@H]4CN(C(C)C)C[C@@H]4c4ccc(Cl)cc4)CC3)CCCCC2)c(F)c1
44 nM,61%,,,,,,6600 nM,CC(C)N1C[C@H](C(=O)N2CCN(C3(CNCc4ccc(F)cc4)CCCCC3)CC2)[C@@H](c2ccc(Cl)cc2)C1
12 nM,48%,,,,,,580 nM,CC(C)N1C[C@H](C(=O)N2CCN(C3(CNCc4ccccc4F)CCCCC3)CC2)[C@@H](c2ccc(Cl)cc2)C1
29 nM,27%,,,,,,190 nM,CC(=O)Nc1ccc(CNCC2(N3CCN(C(=O)[C@H]4CN(C(C)C)C[C@@H]4c4ccc(Cl)cc4)CC3)CCCCC2)cc1
22 nM,31%,,,,,,840 nM,CC(C)N1C[C@H](C(=O)N2CCN(C3(CNCc4ccsc4)CCCCC3)CC2)[C@@H](c2ccc(Cl)cc2)C1
90 nM,29%,,,,,,4200 nM,CC(C)N1C[C@H](C(=O)N2CCN(C3(CNCc4ccc(Cl)cc4)CCCCC3)CC2)[C@@H](c2ccc(Cl)cc2)C1
11 nM,43%,,,,,,50 nM,Cc1c(CNCC2(N3CCN(C(=O)[C@H]4CN(C(C)C)C[C@@H]4c4ccc(Cl)cc4)CC3)CCCCC2)cnn1C
560 nM,69%,,,,,,230 nM,CC(C)N1C[C@H](C(=O)N2CCN(C3(CNCc4ncc[nH]4)CCCCC3)CC2)[C@@H](c2ccc(Cl)cc2)C1
